One test relates to GST-MDM2. Nature of the test: Binder/nonbinder affinity selection on GST-MDM2 beads with plate reader readout. Conditions: 1:1 mixture, 500 nM each, 2 h at 4 °C with GST-MDM2 on GSH beads, four washes, elution 95 °C 5 min. The test is classed as binding. From the text: We next investigated whether a templated ligation could yield peptides in an α-helical conformation. Since CD-based analyses would be difficult to interpret given the PNA, we opted to assess the helical nature of the peptide using binding to a target that requires this conformation. To this end, we used MDM2, an important regulator of the p53 tumor suppressor, which binds to an α-helix of p53[47] and has been a testing ground for stapling technologies[48]−[52] and screening technologies.[53]−[56] Additionally, several X-ray diffraction structures of the MDM2-peptide complex have been reported, supporting the importance of the helicity of the peptide.[51],[57],[58] […] Affinity selection of this mixture against GST-MDM2 immobilized on GSH beads was monitored by fluorescence quantification of the supernatant solution. […]
Ten μL of MagneGST glutathione particles (Promega #V8611) were blocked with 1 mg/mL BSA in PBS-CHAPS (10 mM phosphate buffer, 2.7 mM KCl, and 137 mM NaCl, pH 7.4, with 0.05% CHAPS) three times at room temperature for 5 min. […] The initial library, post-incubation library, washes, and elution were analyzed by a plate reader (SpectraMax i3x, in black 96-well microtiter plates (Thermo Scientific #267342)). […]

The next test addresses T1, MDM2 (Homo sapiens, UniProt Q00987).
T1 construct: made in house
Nature of the test: Surface plasmon resonance (SPR) against captured GST-MDM2. The test is classed as binding. Conditions: SPR Biacore T200, 25 °C, PBS-P+; GST-MDM2 captured via anti-GST antibody on CM5 chip; 2-fold dilutions 250 nM to 3.91 nM; association 250 s, dissociation 400 s. Here is the method: SPR experiments were performed on a Biacore T200 instrument (GE Healthcare) at 25 °C in PBS-P+ buffer (10× stock; Cytiva Life Sciences #28995084). One mL PP 96-well plates (Greiner #780201) were used for dilution directly in the plates. Anti-GST antibody (Cytiva #27457701) was chemically immobilized on a CM5 series S sensor chip (Cytiva Life Sciences #29149604) by EDC/NHS-mediated coupling. For this, an amine coupling kit (Cytiva Life Sciences #BR100633) and the recommended protocol were followed with the following specifications: 20 μg/mL of antibody diluted in 10 mM NaAc pH 5.0 buffer flowed over both flow channels for 600 s (flow rate 10 μL min^–1).
Kinetic measurements consisted of ligand capture of GST-MDM2 (200 nM, 350 s injection, flow rate 10 μL min^–1, stabilization 60 s), followed by injections (association, 250 s; dissociation, 400 s; flow rate, 30 μL min^–1) of decreasing concentrations of compounds (2-fold cascade dilutions from the starting concentration). The chip was regenerated between cycles by one injection of regeneration solution (10 mM glycine-HCl at pH 1.5) for 10 s at a flow rate of 30 μL min^–1, followed by a 120 s stabilization period. Binding was measured as resonance units over time after blank subtraction, and the data were interpreted using Biacore T200 software (version 3.2). The KD values were calculated based on steady-state affinity (1:1 binding). […]
5. Surface Plasmon Resonance Results […]
dotted lines representing the fittings from which the kinetic values are calculated. The compounds […]
shown in Figure 6 are tested at 250 nM (highest concentration) with a 2-fold dilution series until 3.91 nM (lowest concentration).
SPR Curves of compounds 4.1 and 4.4
4.1: Concentrations tested: 125 nM to 3.91 nM (2-fold dilutions) – KD: ND
Supplementary Figure 4. SPR curve of compound 4.1 against MDM2

T1 sequence (Q00987 whole entry, species assumed): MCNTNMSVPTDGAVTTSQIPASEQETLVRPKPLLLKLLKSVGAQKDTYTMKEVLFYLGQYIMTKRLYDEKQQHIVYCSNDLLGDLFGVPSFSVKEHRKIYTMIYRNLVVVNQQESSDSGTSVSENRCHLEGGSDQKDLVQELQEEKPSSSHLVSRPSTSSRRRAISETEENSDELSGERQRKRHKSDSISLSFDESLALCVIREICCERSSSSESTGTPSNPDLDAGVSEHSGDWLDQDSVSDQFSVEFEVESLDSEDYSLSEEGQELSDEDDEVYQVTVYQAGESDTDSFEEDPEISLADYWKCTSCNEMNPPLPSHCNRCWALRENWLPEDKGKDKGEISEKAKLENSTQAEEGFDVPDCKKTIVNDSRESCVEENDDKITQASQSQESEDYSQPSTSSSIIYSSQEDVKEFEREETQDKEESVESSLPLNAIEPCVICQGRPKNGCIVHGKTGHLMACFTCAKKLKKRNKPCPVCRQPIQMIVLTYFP

Consider “PNA- Gly Ser Nle Cba Gln Ala Trp Tyr Glu Nle Phe Thr Leu Gly -PNA (head to tail) [binder]”, for which the “recovery in heat elution after affinity selection (fluorescence)” value with GST-MDM2 is reported as “strong recovery”.
On MDM2, `CCCC[C@H](NC(=O)[C@H](CC(C)C)NC(=O)[C@H](CCC(N)=O)NC(=O)[C@H](C)NC(=O)[C@H](Cc1c[nH]c2ccccc12)NC(=O)[C@H](Cc1ccc(O)cc1)NC(=O)[C@H](CCC(N)=O)NC(=O)[C@H](CCCC)NC(=O)[C@H](Cc1ccc(F)c(F)c1)NC(=O)[C@@H](NC(=O)[C@H](CC(C)C)NC(=O)CNC(=O)CN(CCNC(=O)CN(CCNC(=O)CN(CCNC(=O)CN(CCNC(=O)[C@H](CCCNC(=N)N)NC(=O)COCCOCCNC(=O)[C@H](CCCNC(=N)N)NC(=O)CN(CCNC(=O)CN(CCNC(=O)CN(CCNC(=O)CN(CCNC(=O)CN(CCNC(=O)CN(CCNC(=O)CN(CCNC(=O)CN(CCNC(=O)[C@H](CCCNC(=N)N)NC(C)=O)C(=O)Cn1cnc2c(=O)[nH]c(N)nc21)C(=O)Cn1ccc(N)nc1=O)C(=O)Cn1ccc(N)nc1=O)C(=O)Cn1cnc2c(=O)[nH]c(N)nc21)C(=O)Cn1cc(C)c(=O)[nH]c1=O)C(=O)Cn1cnc2c(N)ncnc21)C(=O)Cn1cnc2c(=O)[nH]c(N)nc21)C(=O)Cn1cnc2c(=O)[nH]c(N)nc21)C(=O)Cn1ccc(N)nc1=O)C(=O)Cn1ccc(N)nc1=O)C(=O)Cn1cc(C)c(=O)[nH]c1=O)C(=O)Cn1cnc2c(N)ncnc21)[C@@H](C)O)C(=O)N[C@@H](CO)C(=O)NCC(=O)NCCN(CC(=O)NCCN(CC(=O)NCCN(CC(=O)NCCN(CC(=O)N[C@@H](CCCNC(=N)N)C(N)=O)C(=O)Cn1ccc(N)nc1=O)C(=O)Cn1cnc2c(=O)[nH]c(N)nc21)C(=O)Cn1cnc2c(=O)[nH]c(N)nc21)C(=O)Cn1ccc(N)nc1=O` [2.2 (PNA)] displayed a koff of 0.0029 s⁻¹ and a kon of 830000 M⁻¹ s⁻¹.

The values above are taken from publication PMC11522901, “Translation of Deoxyribonucleic Acid into Synthetic Alpha Helical Peptides for Darwinian Evolution” (JACS Au, 2024).
